Test results from ChEMBL document CHEMBL3639122, “Heteroarylcarboxylic acid ester derivative” (2015).
pKi: −log10 of the molar value.

How the values were obtained:
Enteropeptidase = Enteropeptidase (Homo sapiens, UniProt P98073); assay: Inhibition Assay: Using a 96 well plate (#3915, Costar), a test compound (25 μL), 400 mM Tris-HCl buffer (pH 8.0, 25 μL) and 0.5 mg/mL fluorescence enzyme substrate (Gly-Asp-Asp-Asp-Asp-Lys-β-Naphtylamide, 25 μL) were mixed, and recombinant human enteropeptidase (R&D Systems, Inc., 25 μL) was added. Using a fluorescence plate reader fmax (Molecular Devices, Inc.), the reaction rate was measured from the time-course changes at excitation wavelength 320 nm and fluorescence wavelength 405 nm.
Enteropeptidase, sequence (P98073 2-784 limits assumed): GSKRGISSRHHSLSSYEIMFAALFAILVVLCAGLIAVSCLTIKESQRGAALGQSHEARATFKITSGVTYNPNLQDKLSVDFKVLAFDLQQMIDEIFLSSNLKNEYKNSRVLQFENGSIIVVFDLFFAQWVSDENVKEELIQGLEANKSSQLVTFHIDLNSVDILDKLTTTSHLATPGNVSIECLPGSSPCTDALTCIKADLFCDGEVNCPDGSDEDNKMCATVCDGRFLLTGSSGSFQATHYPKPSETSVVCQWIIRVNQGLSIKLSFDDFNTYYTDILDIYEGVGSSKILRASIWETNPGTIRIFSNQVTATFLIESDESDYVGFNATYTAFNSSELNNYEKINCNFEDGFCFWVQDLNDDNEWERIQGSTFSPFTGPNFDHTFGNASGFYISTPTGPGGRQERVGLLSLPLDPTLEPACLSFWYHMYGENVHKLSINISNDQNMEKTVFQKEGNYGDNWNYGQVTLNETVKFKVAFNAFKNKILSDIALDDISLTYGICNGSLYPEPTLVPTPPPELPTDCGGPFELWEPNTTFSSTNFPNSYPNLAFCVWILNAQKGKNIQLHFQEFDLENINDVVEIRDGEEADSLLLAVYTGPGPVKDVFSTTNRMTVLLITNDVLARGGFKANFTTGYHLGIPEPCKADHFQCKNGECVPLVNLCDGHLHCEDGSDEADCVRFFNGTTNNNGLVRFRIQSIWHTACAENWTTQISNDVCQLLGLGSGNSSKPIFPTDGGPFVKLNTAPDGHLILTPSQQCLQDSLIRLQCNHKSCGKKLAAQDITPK
Enteropeptidase, sequence (P98073 785-1019 limits assumed): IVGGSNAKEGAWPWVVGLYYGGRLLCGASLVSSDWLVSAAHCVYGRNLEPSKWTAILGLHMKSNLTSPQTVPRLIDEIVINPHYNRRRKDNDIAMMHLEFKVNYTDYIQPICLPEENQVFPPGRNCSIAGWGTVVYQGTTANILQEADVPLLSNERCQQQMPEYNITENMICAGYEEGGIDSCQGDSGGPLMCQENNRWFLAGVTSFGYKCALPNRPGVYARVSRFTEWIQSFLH

Serine protease 1 = Serine protease 1 (Homo sapiens, UniProt P07477); assay: Inhibition Assay: Using a 96 well plate (#3915, Costar), a test compound (25 μL) was mixed with 20 μM fluorescence enzyme substrate (Boc-Phe-Ser-Arg-AMC, 50 μL) mixed with 200 mM Tris-HCl buffer (pH 8.0), and human trypsin (Sigma, 25 μL) was added. Using a fluorescence plate reader fmax (Molecular Devices, Inc.), the reaction rate was measured from the time-course changes at excitation wavelength 355 nm and fluorescence wavelength 460 nm.
Serine protease 1, sequence (P07477 whole entry): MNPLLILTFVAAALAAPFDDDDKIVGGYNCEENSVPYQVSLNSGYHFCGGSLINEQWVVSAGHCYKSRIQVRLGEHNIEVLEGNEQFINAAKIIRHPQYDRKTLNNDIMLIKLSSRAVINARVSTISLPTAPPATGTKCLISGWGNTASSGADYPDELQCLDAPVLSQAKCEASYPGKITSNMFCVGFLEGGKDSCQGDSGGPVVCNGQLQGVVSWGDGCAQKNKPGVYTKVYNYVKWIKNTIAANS

CCC(CC)(Cc1ccc(C(=O)Oc2ccc(C(=N)N)cc2F)s1)C(=O)N[C@@H](CCC(=O)O)C(=O)O
pKi (Enteropeptidase): 9.57
pKi (Serine protease 1): 8.70
